Assay results: BindingDB's records for doi:10.1021/jm800503y (University of Queensland, 2008)

Target: T1, Genome polyprotein [1424-1463]/[1502-1685] (West Nile virus, UniProt P06935)
T1 construct: 1424-1463; 1502-1685
T1 sequence (P06935 whole entry) 1: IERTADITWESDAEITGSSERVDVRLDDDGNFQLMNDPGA
T1 sequence (P06935 whole entry) 2: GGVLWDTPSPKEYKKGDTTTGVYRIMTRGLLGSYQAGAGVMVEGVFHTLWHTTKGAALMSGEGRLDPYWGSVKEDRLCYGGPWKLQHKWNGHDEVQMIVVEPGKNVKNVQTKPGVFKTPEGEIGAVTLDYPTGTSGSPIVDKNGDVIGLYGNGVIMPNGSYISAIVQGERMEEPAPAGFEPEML
Test: In Vitro Enzyme Inhibition
Details: pH 9.5; 37 °C
Description: Inhibition of WNV protease activity was measured using recombinant WNV protease, which first incubated with inhibitor in 96-well plates. Catalysis was initiated by adding the substrate. Cleavage of the pNA chromophore from substrate produced a color change monitored at 405 nm. Optical density was measured every 30 s for 10 min by a Spectromax 250 reader, and Ki values were determined by Graphpad Prism.

NCCCC[C@H](NC(=O)C=Cc1ccccc1)C(=O)N[C@@H](CCCCN)C(=O)N[C@H](C=O)CCCN=C(N)N [(2S)-6-amino-2-[(2S)-6-amino-2-[(2E)-3-phenylprop-2-enamido]hexanamido]-N-[(2S)-5-carbamimidamido-1-oxopentan-2-yl]hexanamide] showed an IC50 of 580 nM and a Ki of 104 nM.

For COc1ccc2cc([C@H](C)C(=O)N[C@@H](CCCCN)C(=O)N[C@@H](CCCCN)C(=O)N[C@H](C=O)CCCN=C(N)N)ccc2c1 [(2S)-6-amino-N-[(1S)-5-amino-1-{[(2S)-5-carbamimidamido-1-oxopentan-2-yl]carbamoyl}pentyl]-2-[(2S)-2-(6-methoxynaphthalen-2-yl)propanamido]hexanamide], the IC50 was 112 nM and the Ki was 20 nM.
